Data as given in US20080020368A1, “Method and apparatus for exposing cells to different concentrations of analytes or drugs” (priority 2006, published 2008).

System: HL60 cells
Assay: On-chip TMR study: laser-enhanced TMR fluorescence response of docked cells in tapered microchannel device
Format: cell-based
Settings: Homo sapiens, HL-60, light or radiation study; HL60 cells docked on upper sandbag, on-chip serial dilution of TMR, fast Helium-Neon laser irradiation (~70 ms/ROI) for 3 more minutes; 50% intensity; read-out: EC50 of TMR concentration required to trigger the enhanced fluorescence response
Excerpt: It was the highly compact design of this microdevice that facilitated the comparative study between large amounts of cells on two sandbag components. […] However, only a region of interest (ROI) on the upper sandbag was subjected to fast laser irradiation (˜70 ms/ROI of Helium-Neon laser) for 3 more minutes. A confocal image of both sandbags after the fast irradiation was developed.
Furthermore, despite the large ROI coverage over the upper sandbag, the enhanced response was evidenced for the cells incubated at higher TMR concentration near the sandbag rear. Therefore, the conclusion is that the enhanced response was at least related to 1) concentration of TMR and 2) the amount of laser irradiation.
Referring to FIG. 30, photomicrographs are shown one on top of the other, with the top photomicrograph showing cells docked on both sandbags but only those encircled by the black dotted framework are subjected to laser irradiation. […] The purpose of these photomicrographs is to show the power of the microchip to perform rapid analysis and retrieve effective concentration of a photodynamic therapy drug candidate that is sensitive to light irradiation.
The response profiles of cells docked on the upper and lower sandbags of FIG. 30 are plotted in FIG. 31. […] Note further that there is an average peak in intensity at a 3.73 μM at 50% intensity. […]

Structure (SMILES): CN(C)c1ccc2c(-c3ccc(CCl)cc3)c3ccc(=[N+](C)C)cc-3oc2c1 [TMR, Tetramethylrosamine]
- EC50: 3.73 µM
